Results reported in patent US20120190752A1, “EXO-S-MECAMYLAMINE METHOD, USE, AND COMPOUND FOR TREATMENT” (Targacept Inc., priority 2009, published 2012).

Test system: subjects with major depressive disorder (MDD) who were inadequate responders to citalopram
Test: SGI-Cog (Subject Global Impression-Cognition) with Attention, Memory, Speed subscales, Phase 2b add-on trial
Format: in vivo, human
Parameters: SGI-Cognition Adj. Mean / SGI-Attention Adj. Mean / SGI-Memory Adj. Mean / SGI-Speed Adj. Mean / SGI-Cog TOTAL Adjusted Mean / SGI-Cog MEMORY Adjusted Mean / SGI-Cog ATTENTION Adjusted Mean / SGI-Cog SPEED OF THINKING Adjusted Mean: scale not given here
Details: for SGI-Cog ATTENTION Adjusted Mean / SGI-Cog ATTENTION Mean Difference between TC-5214 and Placebo / SGI-Cog MEMORY Adjusted Mean / SGI-Cog MEMORY Mean Difference between TC-5214 and Placebo / SGI-Cog SPEED OF THINKING Adjusted Mean / SGI-Cog SPEED OF THINKING Mean Difference between TC-5214 and Placebo / SGI-Cog TOTAL Adjusted Mean / SGI-Cog TOTAL Mean Difference between TC-5214 and Placebo: Double Blind Week 16; for SGI-Attention Adj. Mean / SGI-Memory Adj. Mean / SGI-Speed Adj. Mean / SGI-Cognition Adj. Mean / SGI-Attention Difference vs placebo / SGI-Cognition Difference vs placebo / SGI-Memory Difference vs placebo / SGI-Speed Difference vs placebo: ITT; for SGI-Attention Adj. Mean / SGI-Memory Adj. Mean / SGI-Speed Adj. Mean / SGI-Cognition Adj. Mean: assessed at endpoint (Week 16), patient rated change from baseline; for SGI-Cognition Adj. Mean: sum of 3 items; for SGI-Attention Difference vs placebo / SGI-Cognition Difference vs placebo / SGI-Memory Difference vs placebo / SGI-Speed Difference vs placebo: endpoint (Week 16)
Procedure: In more detail, a multi-center double-blind, randomized, placebo-controlled, parallel group, flexible dose titration study of TC-5214 as adjunctive therapy in subjects with major depressive disorder (MDD) who were inadequate responders to citalopram was conducted in centers in the US and India. The study consisted of a screening period, baseline/washout period, open-label phase, double-blind phase, and a follow-up visit. Subject participation in the study could continue for up to 16 weeks of treatment. Following a washout period of up to 28 days for other antidepressants, subjects with MDD and a MADRS total score >/=28 and a Clinical Global Impression-Severity (CGI-S) score >/=4 were enrolled on Day 1 into an open-label citalopram-only phase of the study. This phase lasted 8 weeks, with citalopram (CIT) dose increased from a once-daily dose of 20 mg (Day 1 through Week 4) to 40 mg (Week 4 through Week 8). A total of 579 subjects entered the open-label citalopram phase. At Week 8, subjects who tolerated 40 mg CIT, but whose MADRS score was reduced <50% from baseline and no lower than 17, and CGI-S≧4, were considered inadequate responders. These subjects (n=270) were randomized in a double-blind fashion to receive either placebo or TC-5214-23 as add-on therapy to continued CIT. The double-blind phase of the study also lasted 8 weeks (Week 8 to Week 16). Study drug, TC-5214-23 or placebo, was started at 2 mg daily (1 mg twice per day [BID] dosing), added on to continuing CIT (40 mg PO qd). After 2 weeks of treatment, the dose of TC-5214 could be increased to 4 mg (2 mg BID) or continued unchanged, with up-titration based upon good tolerability and inadequate therapeutic response. After a further 2 weeks, the dose of TC-5214 could be increased again to 8 mg (4 mg BID) if judged appropriate by the investigator, based upon good tolerability and inadequate therapeutic response. At any time during the double-blind phase of the study, placebo or TC-5214-23 could be reduced to the previous dose level following the emergence of unacceptable adverse events (AEs). […] At this follow-up, any signs or symptoms of relapse were evaluated. If a subject was prematurely discontinued from the study between Week 8 and Week 16 for any reason, the investigator was to make every effort to perform all evaluations as per protocol, assuming the subject had reached the end of the double-blind add-on treatment phase. These evaluations were to be made as soon as possible and within 2 weeks of discontinuation. […] There was no meaningful difference in results as a function of age, gender, site, or smoking status. [table] With regard to efficacy endpoints, the following tables present efficacy used in the ITT (Intent-to-Treat) and PP (Per Protocol) populations unless otherwise specific. The primary inference was based upon Week 16 visit using the ITT population. Change from baseline was obtained by subtracting the baseline values from the individual on-treatment values. Change from Week 16 was obtained by subtracting the Week 16 values from the individual follow-up visit (Week 18/19) values. If either the baseline or Week 16 or on-treatment or follow-up value was missing, the change from baseline or Week 16 value was also set to missing. To account for missing data, the last observation carry forward (LOCF) method was used for the ITT and PP populations. Thus, the last available on-therapy observation for a subject, including the observation at premature discontinuation, was used to estimate subsequent missing data points. For efficacy, baseline data were collected at Week 8 in the double-blind augmentation phase electronic case report form pages. With regard to SGI-Cog, the endpoint was the Week 16 results for the SGI-Cog. The Week 16 SGI-Cog composite score and each scale were analyzed at Week 16 using ANOVA. […]

CNC1(C)C2CCC(C2)C1(C)C (stereo in doubt) [TC-5214, (S)—N,2,3,3-tetramethylnorbornan-2-amine]
SGI-Cog ATTENTION Adjusted Mean (ITT Population): 2.13 | SGI-Cog ATTENTION Mean Difference between TC-5214 and Placebo (ITT Population): 0.72 | SGI-Cog MEMORY Adjusted Mean (ITT Population): 2.23 | SGI-Cog MEMORY Mean Difference between TC-5214 and Placebo (ITT Population): 0.67 | SGI-Cog SPEED OF THINKING Adjusted Mean (ITT Population): 2.16 | SGI-Cog SPEED OF THINKING Mean Difference between TC-5214 and Placebo (ITT Population): 0.76 | SGI-Cog TOTAL Adjusted Mean (ITT Population): 6.52 | SGI-Cog TOTAL Mean Difference between TC-5214 and Placebo (ITT Population): 2.15 | SGI-Attention Adj. Mean: 2.13 (0.09) | SGI-Memory Adj. Mean: 2.23 (0.09) | SGI-Speed Adj. Mean: 2.16 (0.09) | SGI-Attention Adj. Mean (listed as TC-5214 + CIT): 2.13 | SGI-Memory Adj. Mean (listed as TC-5214 + CIT): 2.23 | SGI-Speed Adj. Mean (listed as TC-5214 + CIT): 2.16 | SGI-Cognition Adj. Mean: 6.52 (0.27) | SGI-Cognition Adj. Mean (listed as TC-5214 + CIT): 6.52 | SGI-Attention Difference vs placebo: −0.72 (−0.96, −0.47) | SGI-Cognition Difference vs placebo: −2.15 (−2.89, −1.41) | SGI-Memory Difference vs placebo: −0.67 (−0.93, −0.42) | SGI-Speed Difference vs placebo: −0.76 (−1.02, −0.50) | SGI-Attention Difference vs placebo (listed as TC-5214 + CIT): −0.72 | SGI-Cognition Difference vs placebo (listed as TC-5214 + CIT): −2.15 | SGI-Memory Difference vs placebo (listed as TC-5214 + CIT): −0.67 | SGI-Speed Difference vs placebo (listed as TC-5214 + CIT): −0.76 | SGI-Cog ATTENTION Adjusted Mean (PP Population): 2.03 | SGI-Cog ATTENTION Mean Difference between TC-5214 and Placebo (PP Population): 0.76 | SGI-Cog MEMORY Adjusted Mean (PP Population): 2.15 | SGI-Cog MEMORY Mean Difference between TC-5214 and Placebo (PP Population): 0.68 | SGI-Cog SPEED OF THINKING Adjusted Mean (PP Population): 2.05 | SGI-Cog SPEED OF THINKING Mean Difference between TC-5214 and Placebo (PP Population): 0.81 | SGI-Cog TOTAL Adjusted Mean (PP Population): 6.23 | SGI-Cog TOTAL Mean Difference between TC-5214 and Placebo (PP Population): 2.25 | Total SGI-Cog scores compared with placebo (Week 16, ITT and PP populations, result in words): statistically significant lower
